# Legend:
# Format in all cases: functional, cell-based
# [1] = system: HepG2; assay: Cytotoxicity against human HepG2 cells assessed as reduction in cell viability after 72 hrs by MTT assay
# [2] = system: HCT-116; assay: Cytotoxicity against human HCT-116 cells assessed as reduction in cell viability after 72 hrs by MTT assay
# [3] = system: HT-29; assay: Cytotoxicity against human HT-29 cells assessed as reduction in cell viability after 72 hrs by MTT assay
SMILES,IC50 [1],IC50 [2],IC50 ([3]; ht-29),"IC50 ([3]; Homo sapiens, HT-29, 72 h, read-out: IC50) [µM]"
C=C1[C@H](O)C[C@@H]2[C@](C)(CC[C@H]3OC(C)(C)[C@@H](OC(=O)/C=C/C=C/[C@@H](C)CC)CC[C@]23C)[C@@H]1Cc1c(O)c(C)c(C)oc1=O,Not Active,Not Active,Not Active,
C=C1[C@H](O)C[C@@H]2[C@](C)(CC[C@H]3OC(C)(C)[C@@H](OC(C)=O)CC[C@]23C)[C@@H]1Cc1c(O)c(C)c(C)oc1=O,Not Active,Not Active,Not Active,
C=C1CC[C@@H]2[C@](C)(CC[C@H]3OC(C)(C)[C@@H](O)CC[C@]23C)[C@@H]1Cc1c(O)c(C)c(C)oc1=O,Not Active,Not Active,Not Active,
C=C1CC[C@@H]2[C@](C)(CC[C@H]3OC(C)(C)[C@@H](OC(=O)/C=C/C=C/[C@@H](C)CC)CC[C@]23C)[C@@H]1Cc1c(O)c(C)c(C)oc1=O,Not Active,Not Active,Not Active,
C=C1[C@H](O)C[C@@H]2[C@](C)(CC[C@H]3OC(C)(C)[C@@H](O)CC[C@]23C)[C@@H]1Cc1c(O)c(C)c(C)oc1=O,Not Active,Not Active,Not Active,
C=C1[C@H](O)C[C@@H]2[C@](C)(CC[C@H]3OC(C)(C)[C@@H](OC(=O)/C=C/C=C/C=C/[C@@H](C)CC)CC[C@]23C)[C@@H]1Cc1c(O)c(C)c(C)oc1=O,Not Active,Not Active,,7.6

# Source: ChEMBL document CHEMBL4715877, “Asperginols A and B, Diterpene Pyrones, from an Aspergillus sp. and the Structure Revision of Previously Reported Analogues” (J Nat Prod, 2020)
